# Columns and labels:
# Water solubility = assay type: physicochemical; settings: up to
# mPiezo1 Q1344A = target: T1, mPiezo1 Q1344A (Mus musculus, UniProt E2JF22, Q1344A); experiment: Fura-2 single-cell Ca2+ imaging, Q1344A mutant; assay type: cell-based; settings: 1 mM Jedi1, 30 µM Yoda1
# T1 construct: The full-length mPiezo1 has 2547 amino acids in each monomer; mCherry; expressed in transfected cells; host or cells: HEK293T
# Experimental: Fura-2 single-cell Ca^2+ imaging was performed according to the previous protocol. In brief, mCherry-Piezo1 cDNA (1 μg)-transfected HEK293T cells were plated onto 12-mm round glass coverslips, which were coated with poly-D-lysine and placed in 24-well plates, and subject to Fura-2 single-cell Ca^2+ imaging about 36 h post transfection. Cells were washed with buffer containing 1× HBSS (1.3 mM Ca^2+) and 10 mM HEPES (pH 7.2), incubated with 2.5 μM Fura-2 and 0.05% Pluronic F-127 (Life Technologies) for 30 min, then washed again with the previously mentioned buffer. The coverslip was mounted into an inverted Nikon-Tie microscope equipped with a CoolSNAP charge-coupled devise (CCD) camera and Lambda XL light box (Sutter Instrument), and mCherry-positive and -negative cells were selected for measurement of the 340/380 ratio with a ×20 objective (numerical aperture 0.75) using the MetaFluor Fluorescence Ratio Imaging software (Molecular Device).
# mPiezo1 [1] = target: T2, mPiezo1 (Mus musculus, UniProt E2JF22); experiment: Cell-attached patch with pressure clamp (stretch-activated currents); assay type: cell-based; settings: for slope sensitivity (s): DMSO 14.1 ± 0.7; for P50 (the pressure required for half maximal activation): DMSO −27.0 ± 3.4
# T2 construct: The full-length mPiezo1 has 2547 amino acids in each monomer; expressed in transfected cells; host or cells: HEK293T
# T2 sequence (E2JF22 whole entry): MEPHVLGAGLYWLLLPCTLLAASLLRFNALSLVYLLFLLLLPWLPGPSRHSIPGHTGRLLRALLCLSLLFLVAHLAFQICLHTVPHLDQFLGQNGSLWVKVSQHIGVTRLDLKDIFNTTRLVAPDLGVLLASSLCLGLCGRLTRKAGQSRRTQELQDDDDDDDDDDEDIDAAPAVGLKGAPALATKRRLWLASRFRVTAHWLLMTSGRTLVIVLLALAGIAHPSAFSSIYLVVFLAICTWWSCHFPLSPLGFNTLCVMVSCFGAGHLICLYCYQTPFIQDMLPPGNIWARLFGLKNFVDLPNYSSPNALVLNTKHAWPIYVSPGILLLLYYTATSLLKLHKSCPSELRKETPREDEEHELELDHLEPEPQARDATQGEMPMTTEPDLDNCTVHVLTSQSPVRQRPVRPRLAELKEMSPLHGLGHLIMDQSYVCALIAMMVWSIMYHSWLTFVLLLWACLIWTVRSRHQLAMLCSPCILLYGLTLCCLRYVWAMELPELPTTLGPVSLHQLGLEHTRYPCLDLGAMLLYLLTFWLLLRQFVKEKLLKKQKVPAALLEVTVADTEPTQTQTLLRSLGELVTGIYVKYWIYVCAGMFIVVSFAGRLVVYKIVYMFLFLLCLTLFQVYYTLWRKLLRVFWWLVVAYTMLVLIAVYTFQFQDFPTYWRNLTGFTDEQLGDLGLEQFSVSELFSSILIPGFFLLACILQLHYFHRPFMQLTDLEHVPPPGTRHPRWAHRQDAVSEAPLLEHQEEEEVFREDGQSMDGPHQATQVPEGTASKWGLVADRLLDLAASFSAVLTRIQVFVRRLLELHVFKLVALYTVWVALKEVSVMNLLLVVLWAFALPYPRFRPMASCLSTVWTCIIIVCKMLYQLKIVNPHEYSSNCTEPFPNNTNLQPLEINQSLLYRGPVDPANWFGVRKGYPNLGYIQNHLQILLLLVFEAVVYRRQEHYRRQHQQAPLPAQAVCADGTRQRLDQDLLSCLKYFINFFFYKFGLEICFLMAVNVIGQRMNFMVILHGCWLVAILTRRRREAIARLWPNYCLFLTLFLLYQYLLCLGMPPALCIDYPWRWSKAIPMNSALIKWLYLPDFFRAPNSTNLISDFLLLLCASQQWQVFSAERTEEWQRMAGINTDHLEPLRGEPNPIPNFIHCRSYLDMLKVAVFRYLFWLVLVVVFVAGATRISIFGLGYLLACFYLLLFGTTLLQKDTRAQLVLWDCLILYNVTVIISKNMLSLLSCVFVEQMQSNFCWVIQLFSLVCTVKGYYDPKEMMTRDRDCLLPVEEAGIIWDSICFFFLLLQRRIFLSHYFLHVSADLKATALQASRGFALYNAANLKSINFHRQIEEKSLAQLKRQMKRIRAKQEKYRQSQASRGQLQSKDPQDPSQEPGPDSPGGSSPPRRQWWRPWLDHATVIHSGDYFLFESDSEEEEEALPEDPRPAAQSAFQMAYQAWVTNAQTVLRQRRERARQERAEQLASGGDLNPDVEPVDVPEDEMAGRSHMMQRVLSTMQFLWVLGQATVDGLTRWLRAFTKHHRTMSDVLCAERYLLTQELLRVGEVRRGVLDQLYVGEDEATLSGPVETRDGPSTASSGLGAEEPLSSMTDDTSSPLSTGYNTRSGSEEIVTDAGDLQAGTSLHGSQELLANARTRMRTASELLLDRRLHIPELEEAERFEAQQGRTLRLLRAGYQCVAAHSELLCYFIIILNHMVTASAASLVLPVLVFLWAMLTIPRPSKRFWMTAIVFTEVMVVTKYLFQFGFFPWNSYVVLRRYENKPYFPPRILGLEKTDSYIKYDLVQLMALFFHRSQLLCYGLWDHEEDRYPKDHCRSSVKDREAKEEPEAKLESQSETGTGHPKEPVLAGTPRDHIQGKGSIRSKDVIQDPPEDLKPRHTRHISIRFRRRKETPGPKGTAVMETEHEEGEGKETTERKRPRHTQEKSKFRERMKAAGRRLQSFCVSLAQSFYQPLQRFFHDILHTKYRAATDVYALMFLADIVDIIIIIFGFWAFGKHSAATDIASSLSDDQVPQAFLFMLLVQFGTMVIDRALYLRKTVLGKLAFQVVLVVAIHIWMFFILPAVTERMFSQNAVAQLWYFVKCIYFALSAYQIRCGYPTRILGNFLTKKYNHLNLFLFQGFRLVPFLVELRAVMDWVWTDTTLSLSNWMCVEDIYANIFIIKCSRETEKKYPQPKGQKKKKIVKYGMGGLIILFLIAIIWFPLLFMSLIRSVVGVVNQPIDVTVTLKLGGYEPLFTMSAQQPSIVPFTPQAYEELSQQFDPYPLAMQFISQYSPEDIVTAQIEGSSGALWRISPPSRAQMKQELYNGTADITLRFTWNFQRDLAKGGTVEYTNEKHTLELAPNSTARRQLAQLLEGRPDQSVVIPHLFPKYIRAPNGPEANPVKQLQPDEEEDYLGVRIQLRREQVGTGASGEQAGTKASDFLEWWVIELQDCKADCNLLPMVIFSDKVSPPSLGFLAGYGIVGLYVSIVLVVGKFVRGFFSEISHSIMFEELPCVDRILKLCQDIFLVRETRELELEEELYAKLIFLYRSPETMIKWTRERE
# Experimental: Stretch-activated currents were recorded in the cell-attached patch-clamp configuration as previously described. Currents were sampled at 20 kHz and filtered at 2 kHz. Pipette was filled with a solution consisting of (in mM) 130 NaCl, 5 KCl, 10 HEPES, 1 CaCl2, 1 MgCl2, and 10 TEA-Cl (pH 7.3, balanced with NaOH). The external solution used to zero the membrane potential consisted of (in mM) 140 KCl, 10 HEPES, 1 MgCl2, and 10 glucose (pH 7.3 with KOH). All experiments were done at room temperature. Membrane patches were stimulated with negative pressure pulses for 500 ms through the recording electrode using a Patchmaster-controlled pressure clamp HSPC-1 device (ALA-scientific). Stretch-activated channels were recorded at a holding potential of −80 mV with pressure steps from 0 to −100 mm Hg (−10 mm Hg increments), and 4–11 recording traces were averaged per cell for analysis. Current-pressure relationships were fitted with a Boltzmann equation of the form: I(P) = [1 + exp (−(P – P50)/s)]^−^1, where I is the peak of stretch-activated current at a given pressure, P is the applied patch pressure (in mm Hg), P50 is the pressure value that evoked a current value which is 50% of Imax, and s reflects the current sensitivity to pressure.
# mPiezo1 [2] = target: T2, mPiezo1; experiment: as above; assay type: cell-based; settings: absence of externally applied pressure, compound in pipette, vs DMSO
# mPiezo1 [3] = target: T2, mPiezo1; experiment: Whole-cell patch clamp, gap-free recording, compound puffed onto cells; assay type: cell-based; settings: for compound-evoked whole-cell current: mPiezo1-mRuby2-expressing HEK293T, 1 mM Jedi1 or 30 μM Yoda1 puffed
# Experimental: (§1) Protocols for HEK293T cell culture, transient transfection, and patch-clamp experiments with an Axopatch 200B amplifier (Axon Instruments) or HEKA EPC10 were essentially similar to how previously described[6],[8]. […] The extracellular solution was composed of (in mM) 133 NaCl, 3 KCl, 2.5 CaCl2, 1 MgCl2, 10 HEPES (pH 7.3 with NaOH), and 10 glucose. All experiments were carried out at room temperature. Currents were sampled at 20 kHz, filtered at 2 kHz using the Clampex 10.4 software (Axon Instruments) or Patchmaster software. Leak currents before mechanical stimulations were subtracted offline from the current traces.
# Stock solutions of Jedi1 (100 mM), Jedi2 (100 mM), and Yoda1 (30 mM) were solubilized in DMSO and diluted to the desired final concentrations as indicated in the figure legends using external or internal solutions. In Figs. 3a, 5b, and 6e, the compound solutions were puffed onto the cells using a multichannel perfusion system (MPS-2, World Precision Instruments) while continuously recording using a gap-free mode. In other conditions, the compounds were directly added to the recording chamber or pipette solution, and the currents were recorded within 10 min. In Figs. 5b and 6e, we used the Piezo1-KO-HEK cell line in which the endogenous Piezo1 gene is disrupted.
# [4] = system: mPiezo1 loop deletion mutants ΔL15-16 (657-677) and ΔL19-20 (870–921); experiment: Patch clamp (chemical-, poking- and stretching-induced currents), loop deletion mutants; assay type: cell-based, mouse
# Experimental: as §1
# Mechanical stimulation was delivered to the cell during the patch-clamp recording at an angle of 80° using a fire-polished glass pipette (tip diameter 3–4 μm) as previously described[5],[6]. […] A series of mechanical steps in 1 μm increments was applied every 20 s and currents were recorded at a holding potential of −70 mV. […] In the step-wise poking experiment, the patch was readily lost when the cell was broken at the end of the poking. […]
# Stretch-activated currents were recorded in the cell-attached patch-clamp configuration as previously described. […] Stretch-activated channels were recorded at a holding potential of −80 mV with pressure steps from 0 to −100 mm Hg (−10 mm Hg increments), and 4–11 recording traces were averaged per cell for analysis. […]
# T1 sequence (E2JF22 whole entry Q1344A): as the sequence (E2JF22 whole entry) above, with Q1344A counted along it
Structure (SMILES),solubility (Water solubility),effect of the Q1344A mutation on compound-induced Ca2+ responses (mPiezo1 Q1344A),slope sensitivity (s) (mPiezo1 [1]),maximal stretching-induced Piezo1 current (mPiezo1 [1]; −80 mV),shift of the pressure-current relationship (mPiezo1 [1]; −80 mV),P50 (the pressure required for half maximal activation) (mPiezo1 [1]; −80 mV),fold change of NPo (mPiezo1 [2]),compound-evoked whole-cell current (mPiezo1 [3]),"potentiation of stretching-induced currents of loop deletion mutants ([4]; ΔL15-16 and ΔL19-20, −80 mV)",onset and decay of evoked currents relative to Yoda1-induced currents (mPiezo1 [3]; 1 mM Jedi1 vs 30 μM Yoda1),whole-cell currents or potentiation of poking- or stretching-induced currents in loop deletion mutants ([4]; ΔL15-16 and ΔL19-20 mutant-transfected cells)
Cc1oc(-c2cccs2)cc1C(=O)O [Jedi2],~2000 µM,–,–,–,–,–,–,–,–,–,–
"Clc1cccc(Cl)c1CSc1nnc(-c2cnccn2)s1 [Yoda1, reference compound]",–,did not affect,8.0 ± 2.4 mm Hg,Neither Jedi1 nor Yoda1 altered,significant leftward shift,−15.1 ± 0.9 mm Hg,3.1 ± 1.3 fold,evoked inward currents,failed to potentiate,–,–
Cc1oc(-c2ccccc2)cc1C(=O)O [Jedi1],~2000 µM,did not affect,9.8 ± 1.9 mm Hg,Neither Jedi1 nor Yoda1 altered,–,−16.7 ± 2.2 mm Hg,4.7 ± 1.4 fold,evoked inward currents,–,more rapid onset and faster decay,failed to elicit

# Source: publication PMC5880808, “A lever-like transduction pathway for long-distance chemical- and mechano-gating of the mechanosensitive Piezo1 channel” (Nature Communications, 2018)
